From patent US12448382B2, “Heterocyclic compounds for mediating tyrosine kinase 2 activity” (GUANGZHOU INNOCARE PHARMA TECH CO., LTD., priority 2019, dated 2025)

Key:
[1] = target: T1, human recombinant TYK2 protein (Homo sapiens, UniProt P29597); test: TYK2 Inhibition Assay (HTRF kinase assay); type: biochemical; conditions: human recombinant TYK2, 11.25 μM ATP substrate solution
T1 construct: purchased Carna Biosciences 08-147
T1 sequence (P29597 871-1187 limits assumed): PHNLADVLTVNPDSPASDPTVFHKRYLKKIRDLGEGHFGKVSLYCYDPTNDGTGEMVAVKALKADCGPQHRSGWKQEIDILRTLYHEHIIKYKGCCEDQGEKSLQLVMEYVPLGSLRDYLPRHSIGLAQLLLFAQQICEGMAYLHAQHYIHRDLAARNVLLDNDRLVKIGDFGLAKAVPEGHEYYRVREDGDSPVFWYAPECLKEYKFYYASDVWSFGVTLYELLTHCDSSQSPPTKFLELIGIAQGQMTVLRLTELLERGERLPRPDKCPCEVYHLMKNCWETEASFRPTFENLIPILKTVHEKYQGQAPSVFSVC
Protocol: The effect of the compounds of the present invention on the enzymatic activity of TYK2 was assessed by detecting the substrate phosphorylation level in a kinase reaction using the HTRF kinase assay detection kit (Cisbio, Cat. No. 62TK0PEC).
(§1) The experimental method is generally described below:
A reaction buffer contained the following components: an enzyme reaction buffer (1×), 5 mM MgCl2 mM DTT and 0.01% Brij35 from the kit. A TYK2 kinase solution contained human recombinant TYK2 protein (Carna Biosciences, 08-147) diluted in the reaction buffer to 0.25 ng/μL. A substrate reaction solution contained 11.25 μM ATP and 0.5 μM of a biotinylated tyrosine kinase substrate from the kit in the reaction buffer. A detection solution contained 0.1 ng/μL Eu^3+-labeled cage antibody (Cisbio, 61T66KLB) and 25 nM streptavidin-1 added XL665 (Cisbio, 610SAXLB) in the reaction buffer.
(§2) The test compound was dissolved in DMSO to 10 μM, followed by a serial 4-fold dilution with DMSO to a minimum concentration of 0.061 nM. Each concentration was further diluted 40-fold with the reaction buffer.
(§3) To a 384-well assay plate (Corning, 3674) were added 4 μL of compound solution and 2 μL of TYK2 kinase solution. The mixture was mixed and incubated at room temperature for 15 minutes, and then added with 4 μL of the substrate reaction solution. After further incubation at room temperature for 40 minutes, the reaction mixture was added with an equal volume of 10 μL detection solution and allowed to stand at room temperature for 30 minutes. An Envision plate reader (Perkin Elmer) was then used to measure the progress of the reaction at 620 nm and 665 nm. The ratio of absorbances at 665 nm and 620 nm was positively correlated with the degree of substrate phosphorylation, therefore the activity of TYK2 kinase was detected. In the experiment, the group without TYK2 kinase protein was treated as the 100% inhibition group, and the group with TYK2 kinase protein but not the test compound was treated as the 0% inhibition group. The percentage of inhibition on TYK2 kinase activity by the test, compound was calculated using the following formula: Percentage of inhibition=100−100*(ratiocompound−ratio100% inhibition)/(ratio0% inhibition−ratio100% inhibition)
The IC50 value of the test compound was calculated from 8 concentration points using the XLfit software (ID Business Solutions Ltd., UK) by the following formula: Y=Bottom+(Top−Bottom)/(1+10^((log IC50−X)slope factor))
Where Y was the percentage of inhibition, X was the logarithm of the concentration of the test compound, Bottom was the bottom plateau value of the S-shaped curve, Top was the top plateau value of the S-shaped curve, and slope factor was the slope coefficient of the curve.

[2] = target: T2, human recombinant JAK2 protein (Homo sapiens, UniProt O60674); test: JAK2 Inhibition Assay (HTRF kinase assay); type: biochemical; conditions: human recombinant JAK2, 2.5 μM ATP substrate solution
T2 construct: purchased Carna Biosciences 08-045
Protocol: The effect of the compounds of the present invention on the enzymatic activity of JAK2 was assessed by detecting the substrate phosphorylation level in a kinase reaction using the HTRF kinase assay detection kit (Cisbio, Cat. No. 62TK0PEC).
as §1
A reaction buffer contained the following components: an enzyme reaction buffer (1×), 5 mM MgCl2, 1 mM DTT and 0.01% Brij35 from the kit. A JAK2 kinase solution contained a human recombinant JAK2 protein (Carna Biosciences, 08-045) diluted in the reaction buffer to 0.15 ng/μL. A substrate reaction solution contained 2.5 μM ATP and 0.25 μM of a biotinylated tyrosine kinase substrate from the kit in the reaction buffer. A detection solution contained 0.1 ng/μL Eu^3+-labeled cage antibody (Cisbio, 61T66KLB) and 12.5 nM streptavidin-labeled XL665 (Cisbio, 610SAXLB) in the reaction buffer.
as §2
as §3, with “JAK2” for “TYK2”, “30” for “40”, “test” for “test,”
The IC50 value of the test compound was calculated from 8 concentration points using the XLfit softwere (ID Business Solutions Ltd., UK) by the following formula: Y=Bottom+(Top−Bottom)/(1+10^((log IC50−X)×slope factor))
Where Y was the percentage of inhibition, X was the logarithm of the concentration of the test compound. Bottom was the bottom plateau value of the S-shaped curve, Top was the top plateau value of the S-shaped curve, and slope factor was the slope coefficient of the curve.

T2 sequence (O60674 826-1132 limits assumed): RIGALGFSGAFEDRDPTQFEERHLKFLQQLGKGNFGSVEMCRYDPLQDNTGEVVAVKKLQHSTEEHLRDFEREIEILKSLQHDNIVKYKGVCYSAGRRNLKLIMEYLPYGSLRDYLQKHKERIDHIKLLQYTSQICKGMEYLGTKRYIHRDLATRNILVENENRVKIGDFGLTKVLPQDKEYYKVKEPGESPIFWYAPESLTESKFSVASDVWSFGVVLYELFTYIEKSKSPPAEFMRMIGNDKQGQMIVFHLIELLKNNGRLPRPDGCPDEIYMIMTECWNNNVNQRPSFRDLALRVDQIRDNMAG

Compound | IC50 [1] [nM] | IC50 [2] [nM]
5-chloro-4-((3aR,6aS)-3a,6a-dimethyl-5-((1-methyl-IH-pyrazol-4-yl)methyl)hexahydropyrrolo[3,4-c]pyrrol-2(1H)-yl)-N-(1-methyl-1H-pyrazol-4-yl)pyrimidin-2-amine [Compound 76] | 149 | 475
Cn1cc(Nc2nccc(N3C[C@]4(C)CN(C(=O)C5CC5)C[C@]4(C)C3)n2)cn1 [Compound 1, cyc1opropyl((3aR,6aS)-3a,6a-dimethyl-5-(2((1-methyl-1H-pyrazol-4-yl)amino)pyrimidin-4-yl)hexahydropyrrolo[3,4-c]pyrrol-2(1H)-yl)methanone] | 125 | 319
C[C@@]12CN(C(=O)C3CC3)C[C@]1(C)CN(c1ccnc(Nc3ccc(C(=O)O)cc3)n1)C2 [Compound 2] | 62 | 478
CCNC(=O)c1ccc(Nc2nccc(N3C[C@]4(C)CN(C(=O)C5CC5)C[C@]4(C)C3)n2)cc1 [Compound 3] | 23 | 113
Cn1cc(Nc2nccc(N3C[C@]4(C)CN(C(=O)C(F)(F)F)C[C@]4(C)C3)n2)cn1 [Compound 4, 1-((3aR,6aS)-3a,6a-dimethyl-5-(2((1-methyl-1H-pyrazol-4-yl)amino)pyrimidin-4-yl)hexahydropyrrolo[3,4-c]pyrrol-2(1H)-yl)-2,2,2-trifluoroethan-1-one] | 49 | 126
Cn1cc(Nc2nccc(N3C[C@]4(C)CN(C(=O)C5CC5(F)F)C[C@]4(C)C3)n2)cn1 (stereo partly drawn) [Compound 5, (2,2-difluorocyclopropyl)((3aR,6aS)-3a,6a-dimethyl-5-(2-((1-methyl-1H-pyrazol-4-yl)amino)pyrimidine-4-yl)hexahydropyrrolo[3,4-c]pyrrole-2(1H)-yl)methanone] | 75 | 82
CCOC(=O)N1C[C@@]2(C)CN(c3ccnc(Nc4cnn(C)c4)n3)C[C@@]2(C)C1 [Compound 6, ethyl (3aR,6aS)-3a,6a-dimethyl-5-(2-((1-methyl-1H-pyrazol-4-yl)amino)pyrimidin-4-yl)hexahydropyrrol[3,4-c]pyrrole-2(1H)-carboxylate] | 127 | 113
Cn1cc(Nc2nccc(N3C[C@]4(C)CN(CCC#N)C[C@]4(C)C3)n2)cn1 [Compound 7, 3-((3aR,6aS)-3a,6a-dimethyl-5-(2-((1-methyl-1H-pyrazol-4-yl)amino)pyrimidin-4-yl)hexahydropyrrolo[3,4-c]pyrrol-2(1H)-yl)propanenitrile] | 186 | 138
Cn1cc(Nc2nccc(N3C[C@]4(C)CN(C(=O)NCC#N)C[C@]4(C)C3)n2)cn1 [Compound 8, (3aR,6aS)-N-(cyanomethyl)-3a,6a-dimethyl-5-(2-((1-methyl-IH-pyrazol-4-yl)amino)pyrimidin-4-yl)hexahydropyrrolo[3,4-c]pyrrole-2(1H)-carboxamide] | 66 | 25
CCNC(=O)c1ccc(Nc2ncc(F)c(N3C[C@H]4CN(C(=O)C5CC5(F)F)C[C@H]4C3)n2)cc1 (stereo partly drawn) [Compound 9] | 13 | 38
Cn1cc(Nc2ncc(C#N)c(N3C[C@]4(C)CN(C(=O)C5CC5)C[C@]4(C)C3)n2)cn1 [Compound 15, 4-((3aR,6aS)-5-(cyclopropanecarbonyl)-3a,6a-dimethlhexahydropyrrolo[3,4-c]pyrrol-2(1H)-yl)-2-((1-methyl-1H-pyrazol-4-yl)amino)pyrimidine-5-carbonitrile] | 186 | 551
Cn1cc(Nc2ncc(Cl)c(N3C[C@]4(C)CN(C(=O)C5CNC5)C[C@]4(C)C3)n2)cn1 [Compound 38, azetidin-3-yl((3aR,6aS)-5-(5-chloro-2-((1-methyl-1H-pyrazol-4-yl)amino)pyrimidin-4-yl)-3a,6a-dimethylhexahydropyrrolo[3,4-c]pyrrol-2(1H)-yl)methanone] | 43 | 50
Cn1cc(Nc2ncc(Cl)c(N3C[C@]4(C)CN(CCO)C[C@]4(C)C3)n2)cn1 [Compound 49, 2-((3aR,6aS)-5-(5-chloro-2-((1-methyl-1H-pyrazol-4-yl)amino)pyrimidin-4-yl)-3a,6a-dimethylhexahydropyrrolo[3,4-c]pyrrol-2(1H)-yl)ethan-1-ol] | 52 | 71
Cn1cc(Nc2ncc(Cl)c(N3C[C@]4(C)CN(Cc5ccn(C)n5)C[C@]4(C)C3)n2)cn1 [Compound 75, 5-chloro-4-((3aR,6aS)-3a,6a-dimethyl-5-((1-methyl-1H-pyrazol-3-yl)methyl)hexahydropyrrolo[3,4-c]pyrrol-2(1H)-yl)-N-(1-methyl-1H-pyrazol-4-yl)pyrimidin-2-amine] | 98 | 325
Cn1cc(Nc2ncc(Cl)c(N3C[C@]4(C)CN(Cc5ncn(C)n5)C[C@]4(C)C3)n2)cn1 [Compound 77, 5-chloro-4-((3aR,6aS)-3a,6a-dimethyl-5-((1-methyl-1H-1,2,4-triazol-3-yl)methyl)hexahydropyrrolo[3,4-c]pyrrol-2(1H)-yl)-N-(1-methyl-1H-pyrazol-4-yl)pyrimidin-2-amine] | 30 | 136
Cc1cc(Nc2ncc(Cl)c(N3C[C@]4(C)CN(C(=O)C5CC5)C[C@]4(C)C3)n2)no1 [Compound 93] | 158 | 91
Cn1ccc(Nc2ncc(Cl)c(N3C[C@]4(C)CN(C(=O)C5CC5)C[C@]4(C)C3)n2)n1 [Compound 94, ((3aR,6aS)-5-(5-chloro-2-((1-methyl-1H-pyrazol-3-yl)amino)pyrimidin-4-yl)-3a,6a-dimethylhexahydropyrrolo[3,4-c]pyrrol-2(1H)-yl)(cyclopropyl)methanone] | 224 | 34
COc1cnc(Nc2cnn(C)c2)nc1N1C[C@]2(C)CN(C(=O)CC#N)C[C@]2(C)C1 [Compound 97, 3-((3aR,6aS)-5-(5-methoxy-2-((1-methyl-1H-pyrazol-4-yl)amino)pyrimidin-4-yl)-3a,6a-dimethylhexahydropyrrolo[3,4-c]pyrrol-2(1H)-yl)-3-oxopropanenitrile] | 56 | 8.1
